Experimental data reported in patent US12414958B2, “Medicament and use thereof for treating bacterial infections involving biofilm” (Debiopharm International S.A., priority 2019, dated 2025).
Several values for one entry are separate records, joined by “and”; a condition that tells them apart may be missing. Equal values may be shown once.

Assays:
ATCC 43300 MRSA strain = test: Induction of resistance studies, ex vivo bacterial exposure to 4×MIC (Example 1); format: cell-based, Staphylococcus aureus; conditions: ex vivo exposure to 4×MIC; single and combination therapy; 24h or 72h biofilm
Description: Two experimental settings were used in this study to evaluate the treatment efficacies against early (24h) and/or mature (72h) MRSA catheter formed biofilms. Briefly, mice were anaesthetised by an IP injection of about 120 μl a mix of ketamine (50 mg/kg) and xylazine (10 mg/kg) (4 mL ketamine+2 mL xylazine+10 mL saline). Flank on the right side was shaved and then disinfected by 3 consecutive applications of betadine. A cutaneous and then subcutaneous (SC) incisions of 0.2 cm were made under sterile conditions and a 1 cm segment of polyurethane catheter (Ref. No. ES-04730 Arrow international) cut into 2 longitudinal fragments was inserted SC (into the incision and then pushed further under the skin, about 2 cm away from the incision). The inoculation was done simultaneously by placing 50 μl of the bacterial culture onto the catheter (10^6 CFU of ATCC 43300 MRSA strain). The incision was stitched up and disinfected. The day of the infection was referred to as Day0 (D0). To ensure that the study was conducted in sterile conditions from the start to the end of the experiment, non-infected mice (sentinel group) were included. […] In both 24 h and 72h biofilm settings, two groups of infected non-treated animals (Vehicle controls) were evaluated for bacterial counts: at baseline (24h or D1 [for 24-h biofilm] and 72h or D3 [for 72-h biofilm] post infection, i.e. time points corresponding to treatments initiations) and at the termination of treatment duration (D6 [for 24-h biofilm] and D8 [for 72-h biofilm] post infection). Post treatment CFUs were counted on D6 or D8 and results were expressed as Log10 CFU/g of catheter (Mean±SEM). The limit of detection was determined as being 1 Log10 CFU/g of catheter. Changes of CFU/g of catheter (Δ Log10) from the baseline (D1 or D3 for 24-h and 72-h biofilm, respectively) and cure rates (corresponding to the percentage of mice without catheter-associated bacteria within a given treatment group) were also calculated. In vivo induction of antibiotic-resistant bacteria was analysed for all tested antibiotics.

[1] = system: S. aureus ATCC 43300 (MRSA); test: Mouse tissue cage model of MRSA infection, 11-day treatment at lower dosage (Example 3); format: in vivo, Staphylococcus aureus; conditions: for Cure rate (%) / adherent bacteria reduction from baseline (mean±SD): 24-h biofilm; for Cure rate (%) / adherent bacteria reduction from baseline (mean±SD) / day on which bactericidal effect (mean reduction of bacterial load by ≥3 Log10) on planktonic bacteria was exerted / Planktonic day 3 Δlog from baseline (individual animal) / Planktonic day 6 Δlog from baseline (individual animal) / Planktonic day 9 Δlog from baseline (individual animal) / Planktonic day 11 Δlog from baseline (individual animal): 11-day treatment; for Cure rate (%): cages without growth / total cages; for adherent bacteria reduction from baseline (mean±SD): n=6, given as positive reduction; for Adherent Mean / Adherent Δlog from baseline (individual animal): medium after sonication of explanted tissue cages, day 14 vs day 1; for Adherent Mean: group mean; for day on which bactericidal effect (mean reduction of bacterial load by ≥3 Log10) on planktonic bacteria was exerted: planktonic bacteria in tissue cage fluid; for Planktonic day 3 Δlog from baseline (individual animal) / Planktonic day 6 Δlog from baseline (individual animal) / Planktonic day 9 Δlog from baseline (individual animal) / Planktonic day 11 Δlog from baseline (individual animal) / Planktonic day 14 Δlog from baseline (individual animal) / Planktonic day 3 Mean / Planktonic day 6 Mean / Planktonic day 9 Mean / Planktonic day 11 Mean / Planktonic day 14 Mean: tissue cage fluid; for Planktonic day 3 Δlog from baseline (individual animal) / Planktonic day 6 Δlog from baseline (individual animal) / Planktonic day 9 Δlog from baseline (individual animal) / Planktonic day 11 Δlog from baseline (individual animal): baseline day 1; for Planktonic day 14 Δlog from baseline (individual animal): 3 days after end of 11-day treatment; for Planktonic day 3 Mean / Planktonic day 6 Mean / Planktonic day 9 Mean / Planktonic day 11 Mean / Planktonic day 14 Mean: group mean Δlog from baseline
Text: The purpose of this study was to evaluate the efficacy of Debio 1450 BES alone and in combination with Daptomycin (DAP) in the mouse tissue cage model of implant-associated infections caused by methicillin resistant Staphylococcus (S.) aureus (MRSA) at lower dosage and longer treatment duration than used in the previous study (Example 2). The efficacy against 24-h biofilm of S. aureus ATCC 43300 (MRSA) was investigated. Employing a small initial inoculum (ca. 300 CFU/cage) together with a 24-h biofilm allowed to simulate clinical settings of an acute implant infection and/or surgical debridement.
The Debio 1450 BES dose of 20 mg/kg BID reflects the most current HED of 240 mg BID obtained in the recent PK studies (50 mg/kg BID was used in Example 2 based on the previous PK analysis). […] The treatment duration of 11 days was selected to compensate lowering of the dose of Debio 1450 BES (5.5-day treatment was used in Example 2) and is in line with the prolonged antibiotic therapy applied in patients with prosthetic joint infections.
The same mouse tissue cage model was employed as described in Example 2 above. The animals received antibiotic treatment i.p. on day 1 post-infection through day 11. One group received only 5% glucose and served as infected, untreated control group (vehicle). […] Debio 1450 BES and vehicle were administered bid, and DAP was administered qdam. In the present study we investigated the efficacy of lower dosage in a prolonged treatment duration.
Five to 6 days before infection, TCF was aspirated to ascertain the sterility of implanted cages by TCF plating on blood agar plates. TCF was aspirated and plated on day 1 (before treatment) to confirm the establishment of infection. In addition, the number of bacteria in TCF was determined on day 3 (before the first injection that day), on day 6, day 9 and on day 11 (before last treatment), and on day 14 (before explantation of the cages) to evaluate the treatment efficacy against planktonic bacteria. The mouse number and bacterial count for the given cage is reported to analyse the time course of antibacterial activity of the tested drugs. The efficacy against biofilm-embedded bacteria is assessed qualitatively and quantitatively following aseptic explantation of the tissue cages 3 days after the completion of treatment. The 3 days of resting period helped to avoid the antibiotic carryover effect. Upon explantation, cages were washed twice with phosphate buffered saline (PBS) (Lot #5060914) and immediately transferred into 5 mL 0.9% NaCl (Lot #L171095). Following 30 s vortexing, sonication (3 min at 130 W), and an additional 30 s vortexing step the numbers of bacteria dispersed from biofilm was determined by plating. The sonicated cages were washed once with PBS, transferred into 5 mL TSB (Lot #0286463), and incubated for 48 h at 37° C., with an additional vortexing step after 24 h of incubation. After the incubation, tubes were vortexed again and bacterial regrowth was assessed visually. In addition, 100 μL of each culture was plated on blood agar plates to ascertain the regrowth. A positive culture is defined as a treatment failure. The efficacy of treatment against adherent bacteria is expressed as the cure rate (in percent), defined as the number of cages without growth divided by the total number of cages in the individual treatment group. In addition, single colonies from the re-growth plates were used to achieve the 0.5 McFarland. 100 μl of each 0.5 McFarland culture was plated on MHA plates containing the antibiotics corresponding to the treatment used (note: bacteria from mice treated with Debio 1450 will be plated on plates containing Debio 1452).

MSSA ATCC 29213 = test: Mouse tissue cage model of staphylococcal biofilm infection, MSSA (Example 4); format: in vivo, Staphylococcus aureus; conditions: 24-h biofilm MSSA ATCC 29213; 11-d treatment; cages explanted day 14
Description: After the incubation, tubes were vortexed again and bacterial regrowth was assessed visually. […] The efficacy of treatment against adherent bacteria is expressed as the cure rate (in percent), defined as the number of cages without growth divided by the total number of cages in the individual treatment group.

| Compound | Cure rate (%) [1] [%] | adherent bacteria reduction from baseline (mean±SD) [1] [log 10 CFU/mL] | Adherent Mean [1] [log 10 CFU/mL] | day on which bactericidal effect (mean reduction of bacterial load by ≥3 Log10) on planktonic bacteria was exerted [1] [day] | Planktonic day 3 Mean [1] [Log10] | Planktonic day 6 Mean [1] [Log10] | Planktonic day 9 Mean [1] [Log10] | Planktonic day 11 Mean [1] [Log10] | Planktonic day 14 Mean [1] [Log10] | Cure rate (%) (MSSA ATCC 29213) | other results |
| --- | --- | --- | --- | --- | --- | --- | --- | --- | --- | --- | --- |
| CCCCCCCCCC(=O)N[C@@H](Cc1c[nH]c2ccccc12)C(=O)N[C@H](CC(N)=O)C(=O)N[C@@H](CC(=O)O)C(=O)N[C@@H]1C(=O)NCC(=O)N[C@@H](CCCN)C(=O)N[C@@H](CC(=O)O)C(=O)N[C@H](C)C(=O)N[C@@H](CC(=O)O)C(=O)NCC(=O)N[C@H](CO)C(=O)N[C@@H]([C@H](C)CC(=O)O)C(=O)N[C@@H](CC(=O)c2ccccc2N)C(=O)O[C@@H]1C [Daptomycin] | 50 | 3.15±2.74 | −3 | 6 | −3 | −3.33 | −3.9 | −3.73 | −2 | – | emergence of resistant mutants (ATCC 43300 MRSA strain): no emergence of resistant mutants; Adherent Δlog from baseline (individual animal) ([1]; listed as DAP): −4.2 log 10 CFU/mL and −0.3 log 10 CFU/mL and 0.24 log 10 CFU/mL and −6 log 10 CFU/mL (2×) and −2.5 log 10 CFU/mL; Planktonic day 3 Δlog from baseline (individual animal) ([1]; listed as DAP): −2.56 Log10 and −2.18 Log10 and −3.12 Log10 and −2.06 Log10 and −3.41 Log10 and −3.62 Log10; Planktonic day 6 Δlog from baseline (individual animal) ([1]; listed as DAP): −2.7 Log10 and −3.5 Log10 (2×) and −3.4 Log10 (2×) and −3.6 Log10; Planktonic day 9 Δlog from baseline (individual animal) ([1]; listed as DAP): −4.6 Log10 and −5.5 Log10 and −2.7 Log10 and −3.4 Log10 and −3.6 Log10 (2×); Planktonic day 11 Δlog from baseline (individual animal) ([1]; listed as DAP): −4.6 Log10 and −2.9 Log10 and −2.70 Log10 and −3.4 Log10 and −5.2 Log10 and −3.6 Log10; Planktonic day 14 Δlog from baseline (individual animal) ([1]; listed as DAP): −4.6 Log10 and −1.1 Log10 and −1.5 Log10 and −3.4 Log10 and −0.6 Log10 and −3.6 Log10 |
| Cc1c(CN(C)C(=O)/C=C/c2cnc3c(c2)CCC(=O)N3COP(=O)(O)O)oc2ccccc12 [Debio 1450, {6-[(1E)-3-{methyl [(3-methyl-1-benzofuran-2-yl)methyl]amino}-3-oxoprop-1-en-1-yl]-2-oxo-3,4-dihydro-1,8-naphthyridin-1 (2H)-yl} methyl dihydrogen phosphate] | 83 | 4.35±2.5 | −4 | 6 | −3 | −3.50 | −4.10 | −4.10 | −3 | 14.3 | Adherent Δlog from baseline (individual animal) [1]: −4.2 log 10 CFU/mL (2×) and 0.43 log 10 CFU/mL and −6 log 10 CFU/mL (3×); Planktonic day 3 Δlog from baseline (individual animal) [1]: −1.46 Log10 and −3.68 Log10 and −2.22 Log10 and −3.33 Log10 and −3.03 Log10 and −2.37 Log10; Planktonic day 6 Δlog from baseline (individual animal) [1]: −3.1 Log10 and −3.7 Log10 (2×) and −4.2 Log10 and −3.3 Log10 and −3 Log10; Planktonic day 9 Δlog from baseline (individual animal) [1]: −3.1 Log10 and −3.7 Log10 and −6.2 Log10 and −3.3 Log10 and −3 Log10 and −5.3 Log10; Planktonic day 11 Δlog from baseline (individual animal) [1]: −3.1 Log10 and −3.7 Log10 and −6.2 Log10 and −3.3 Log10 and −3 Log10 and −5.3 Log10; Planktonic day 14 Δlog from baseline (individual animal) [1]: −3.1 Log10 and −3.7 Log10 and −0.2 Log10 and −3.3 Log10 and −3 Log10 and −5.3 Log10 |
| CO[C@H]1/C=C/O[C@@]2(C)Oc3c(C)c(O)c4c(O)c(c(/C=N/N5CCN(C)CC5)c(O)c4c3C2=O)NC(=O)/C(C)=C\C=C\[C@H](C)[C@H](O)[C@@H](C)[C@@H](O)[C@@H](C)[C@H](OC(C)=O)[C@@H]1C [Rifampicin] | – | – | – | – | – | – | – | – | – | 100 | – |
